Structures can show the parent of a compound that is named as a salt.
Key:
[1] = test system: S. aureus strain ATCC 13709 (methicillin-susceptible); test: Murine model for lethal bacteremic peritonitis; assay type: in vivo, female Swiss-Webster mice; details: Staphylococcus aureus, ATCC13709, SC, 72 h; for responders at 0.3125 mg/kg / responders at 0.625 mg/kg / responders at 2.5 mg/kg / responders at 5 mg/kg: read-out: Survivors; for responders at 1.25 mg/kg: read-out: Survivors (converted); for ED50: two equal doses, IP challenge, read-out: ED50
Summary of the method: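 Female Swiss-Webster mice were challenged IP with an LD100 inoculum in 7% hog gastric mucin, then given test drug subcutaneously in twofold increments (0.01–512 mg/kg) as two equal doses at challenge and 2 h later, 10 mice per group. Survival was scored at 72 h; PD50 (total mg/kg) was derived by probit.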

[2] = test system: S. aureus Col8A(Meth^S)(lac^-); test: In vitro MIC, agar dilution; assay type: cell-based; details: Staphylococcus aureus; S. aureus Col8A(Meth^S)(lac^-); read-out: minimum inhibitory concentration (MIC)
Summary of the method: (§1)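 Two-fold dilutions (128 to ≤0.25 μg/mL, in duplicate) were poured into Mueller-Hinton agar. Log-phase broth cultures were spot-inoculated at about 10^4 cfu per spot and incubated 35-36°C for 16-20 hours; the MIC was the lowest concentration inhibiting growth. Col is a high-level PBP2a producer; Col 8A is its isogenic PBP2a-lacking partner.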

[3] = test system: S. aureus Col(Meth^R)(lac^-); test: In vitro MIC, agar dilution; assay type: cell-based; details: Staphylococcus aureus, read-out: minimum inhibitory concentration (MIC)
Summary of the method: as §1

[4] = test system: E. faecium A491(Amp^R); test: In vitro MIC, agar dilution; assay type: cell-based; details: Enterococcus faecium, read-out: minimum inhibitory concentration (MIC)
Summary of the method: (§2)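 Strains were spotted at roughly 10^4 cfu onto drug-containing Mueller-Hinton agar. MIC was read as the lowest inhibitory concentration after overnight incubation at 35-36 °C.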

[5] = test system: E. faecium ATCC 35667; test: In vitro MIC, agar dilution; assay type: cell-based; details: Enterococcus faecium, ATCC35667, read-out: minimum inhibitory concentration (MIC)
Summary of the method: as §2

[6] = test system: S. aureus PC1(Meth^S)(lac^+); test: In vitro MIC, agar dilution; assay type: cell-based; details: Staphylococcus aureus, read-out: minimum inhibitory concentration (MIC)
Summary of the method: as §2

[7] = test system: S. aureus ATCC 29213; test: In vitro MIC, agar dilution; assay type: cell-based; details: Staphylococcus aureus, ATCC29213, read-out: minimum inhibitory concentration (MIC)
Summary of the method: as §2

[8] = test system: S. aureus ATCC 13709(Meth^S); test: In vitro MIC, agar dilution; assay type: cell-based; details: Staphylococcus aureus, ATCC13709, S. aureus ATCC 13709(Meth^S); read-out: minimum inhibitory concentration (MIC)
Summary of the method: as §2

[9] = test system: S. haemolyticus 05(Meth^R); test: In vitro MIC, agar dilution; assay type: cell-based; details: Staphylococcus haemolyticus, read-out: minimum inhibitory concentration (MIC)
Summary of the method: as §2

[10] = test system: S. aureus ATCC 33593(Meth^R); test: In vitro MIC, agar dilution; assay type: cell-based; details: Staphylococcus aureus, ATCC33593, read-out: minimum inhibitory concentration (MIC)
Summary of the method: as §2

[11] = test system: P. aeruginosa ATCC 27853; test: In vitro MIC, agar dilution; assay type: cell-based; details: Pseudomonas aeruginosa, ATCC27853, read-out: minimum inhibitory concentration (MIC)
Summary of the method: as §2

[12] = test system: E. faecium VanA(Van^R); test: In vitro MIC, agar dilution; assay type: cell-based; details: Enterococcus faecium, read-out: minimum inhibitory concentration (MIC)
Summary of the method: as §2

[13] = test system: S. aureus 76(Meth^R)(lac^+); test: In vitro MIC, agar dilution; assay type: cell-based; details: Staphylococcus aureus, read-out: minimum inhibitory concentration (MIC)
Summary of the method: as §2

[14] = test system: E. faecalis VanB(Van^R); test: In vitro MIC, agar dilution; assay type: cell-based; details: Enterococcus faecalis, read-out: minimum inhibitory concentration (MIC)
Summary of the method: as §2

[15] = test system: E. faecalis ATCC 29212; test: In vitro MIC, agar dilution; assay type: cell-based; details: Enterococcus faecalis, ATCC29212, read-out: minimum inhibitory concentration (MIC)
Summary of the method: as §2

[16] = test system: E. coli ATCC 25992; test: In vitro MIC, agar dilution; assay type: cell-based; details: Escherichia coli, ATCC25992, read-out: minimum inhibitory concentration (MIC)
Summary of the method: as §2

[17] = test system: S. aureus Spain #356(Meth^R); test: In vitro MIC, agar dilution; assay type: cell-based; details: Staphylococcus aureus, read-out: minimum inhibitory concentration (MIC)
Summary of the method: as §2

| Compound | responders at 0.3125 mg/kg [1] [%] | responders at 0.625 mg/kg [1] [%] | responders at 1.25 mg/kg [1] [%] | responders at 2.5 mg/kg [1] [%] | responders at 5 mg/kg [1] [%] | ED50 [1] [mg/kg] | MIC [2] [µg/mL] | MIC [3] [µg/mL] | MIC [4] [µg/mL] | MIC [5] [µg/mL] | MIC [6] [µg/mL] | MIC [7] [µg/mL] | MIC [8] [µg/mL] | MIC [9] [µg/mL] | MIC [10] [µg/mL] | MIC [11] [µg/mL] | MIC [12] [µg/mL] | MIC [13] [µg/mL] | MIC [14] [µg/mL] | MIC [15] [µg/mL] | further results |
| --- | --- | --- | --- | --- | --- | --- | --- | --- | --- | --- | --- | --- | --- | --- | --- | --- | --- | --- | --- | --- | --- |
| CNCCNCCSCc1nnsc1SC1=C(C(=O)O)N2C(=O)[C@@H](NC(=O)/C(=N\OCCF)c3nc(N)sc3Cl)[C@H]2SC1.O=C(O)C(F)(F)F [Cmpd 28, (7R)-7-[(Z)-2-(2-amino-5-chlorothiazol-4-yl)-2-(2-fluoroethoxyimino)acetamido]-3-[(methylaminoethylaminoethylthiomethyl)-1,2,3-thiadiazol-5-ylthio]-3-cephem-4-carboxylate, trifluoroacetic acid salt] | 10 | 10 | 40 | 30 | 70 | 3.01 | 0.25 | 2 | 16 | 1 | 0.5 | 1 | 0.13 | 4 | 4 | 32 | 4 | 2 | 0.25 | 0.13 | MIC [16]: 2 µg/mL; MIC [17]: 2 µg/mL |
| NC(=O)[C@@H](N)CSCc1cnccc1SC1=C(C(=O)O)N2C(=O)[C@@H](NC(=O)/C(=N\O)c3nc(N)sc3Cl)[C@H]2SC1 [Cmpd 59, (7R)-7-[(Z)-2-(2-amino-5-chlorothiazol-4-yl)-2-(hydroxyimino)acetamido]-3-(3-(2R-2-carboxamido-2-aminoethylthiomethyl)pyrid-4-ylthio)-3-cephem-4-carboxylate, trifluoroacetic acid salt] | 40 | 60 | 40 | 40 | 100 | 0.81 | 0.25 | 2 | 16 | 1 | 0.5 | 0.5 | 0.13 | 4 | 2 | > 32 | 2 | 2 | 0.5 | 0.5 | MIC [16]: 8 µg/mL; MIC [17]: 4 µg/mL |
